The values that follow come from patent publication US7763615B2, “Ecteinascidin analogs for use as antitumour agents” (priority 2001, dated 2010).

Data set [1] has as its system H9c2 (2-1), normal rat cardiac muscle cells. The note with it: 24 h.
In a further data set the test system is H-MEC-1. Put plainly: Inhibition of cells growth by colorimetric assay (SRB), H-MEC-1. The class given is cell-based. The method, boiled down:
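Readout: SRB OD490, triplicate wells. Setup: 5×10^3 cells/well, RPMI 1640 + 10% FBS, 37° C, 5% CO2; 18 h pre-attachment; 48 h sample exposure, 10 to 10^−8 μg/ml. Outputs GI, TGI (cytostatic), LC (cytotoxic).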

The conditions of data set [2]: s9, 60 min, 1 μM.
Another data set deals with (HEPG2). The note with it: human, 24 h, 30 μM.
The test system of data set [3] is NRK-52E, normal rat kidney cells. Conditions: 24 h.
The target of another data set is CYP2D6 (Homo sapiens, UniProt P10635). Put plainly: in vitro. Conditions: CYP2D6 (% inhibition).
The test system of data set [4] is L8, normal rat skeletal muscle cells. The note with it: 24 h.
In another data set the test system is SK-OV3. Put plainly: Inhibition of cells growth by colorimetric assay (SRB), SK-OV3. The class given is cell-based. The method, boiled down:
(§1)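 Human tumour cells seeded at 5×10^3 per well in RPMI 1640 10% FBS, attached 18 h, then exposed 48 h to samples from 10 to 10^−8 μg/ml in DMSO/EtOH/PBS. Growth measured by SRB staining after TCA fixation, OD 490 nm, triplicate wells; GI, TGI and LC derived.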

The test system of data set [5] is AML-12, normal mouse liver cells. Conditions: 24 h.
A further data set addresses CYP3A4 (Homo sapiens, UniProt P08684). The note with it: 30 min, 10 µM.
In data set [6] the test system is FDC-P1, normal mouse myelogeous stem cells. The note with it: 24 h.
Experimental: In order to assess the cytotoxicity of the drugs to normal cells, we used 96 well plates plated at a density of 5000 cells per well (except for the FDC-P1 which were plated at 12,000 cells per well) with normal cell lines (ATCC, Table 1) maintained as per the directions of the ATCC: AML-12, normal mouse liver cells; NRK-52E, normal rat kidney cells; L8, normal rat skeletal muscle cells; FDC-P1, normal mouse myelogeous stem cells; and H9c2 (2-1), normal rat cardiac muscle cells. The cells in each plate were permitted to settle overnight before adding the test drug.
To each well (100 μl medium) 10 μl of drug in media was added at varying concentrations (1×10-10-0.01 mg/ml final concentration) and further incubated overnight at 37° C. with 5% CO2. After 24 h the following assays were performed. All experiments were repeated at least 3 times and were assayed in duplicate.
MTS assay (CellTiter 96 aqueous) was performed according to the manufacturer's (Promega) directions (for all cell types). Cell viability (mitochondrial activity) is determined via enzymatic conversion of the formazan substrate.
A further data set relates to K562. Put plainly: cells. Conditions: K562, 48 hours exposure, SRB. In kind it is cell-based. In a few lines: as §1
In the next data set the test system is IGROV-ET. Nature of the data set: cells. The note with it: IGROV-ET, 48 hours exposure, SRB. In kind it is cell-based. In a few lines: as §1
The test system of a further data set is MEL-28. Put plainly: cells. In kind it is cell-based. Conditions: MEL-28, 48 hours exposure, SRB. In a few lines: as §1
A further data set relates to DU145. Put plainly: cells. In kind it is cell-based. The note with it: DU145, 48 hours exposure, SRB. The method, boiled down: as §1
In a further data set the test system is SK-BR3. Nature of the data set: cells. In kind it is cell-based. The note with it: SK-BR3, 48 hours exposure, SRB. In a few lines: as §1
The test system of a further data set is A549. Nature of the data set: cells. In kind it is cell-based. Conditions: Homo sapiens, A549, 48 h. In a few lines:
as §1

The subject of another data set is IGROV. Put plainly: cells. In kind it is cell-based. The note with it: Homo sapiens, 48 h. In a few lines:
as §1

For a further data set, the system named is LOVO. Nature of the data set: cells. The class given is cell-based. Conditions: 48 hours exposure, SRB. The method, boiled down: as §1
In a further data set the test system is PANC-1. Put plainly: cells. In kind it is cell-based. Conditions: PANC-1, 48 hours exposure, SRB. The method, boiled down: as §1
The subject of another data set is LNCAP. Put plainly: cells. The class given is cell-based. Conditions: Homo sapiens, LNCaP, 48 h. The method, boiled down:
as §1

In another data set the test system is LOVO-DOX. Nature of the data set: cells. In kind it is cell-based. In a few lines:
as §1

The test system of another data set is HT29. Nature of the data set: cells. The class given is cell-based. In a few lines:
as §1

Another data set can be described thus: physchem. Conditions: pH 7.4, log D n-Octanol-Dulbecco's PBS pH 7.4.
The next data set deals with P388 lymphoma. Conditions: mice, U.S. Pat. No. 5,149,804; cited from earlier work.
For a further data set, the system named is B16 melanoma. The note with it: mice, U.S. Pat. No. 5,149,804; cited from earlier work.
A further data set deals with Lewis lung carcinoma. The note with it: mice, U.S. Pat. No. 5,149,804; cited from earlier work.
The mark [7] stands for this setting: H-MEC-1, 48 hours exposure, SRB.

SMILES strings stand for the structures. Some results are limits rather than exact numbers.

Chain of CYP3A4 (P08684 whole entry): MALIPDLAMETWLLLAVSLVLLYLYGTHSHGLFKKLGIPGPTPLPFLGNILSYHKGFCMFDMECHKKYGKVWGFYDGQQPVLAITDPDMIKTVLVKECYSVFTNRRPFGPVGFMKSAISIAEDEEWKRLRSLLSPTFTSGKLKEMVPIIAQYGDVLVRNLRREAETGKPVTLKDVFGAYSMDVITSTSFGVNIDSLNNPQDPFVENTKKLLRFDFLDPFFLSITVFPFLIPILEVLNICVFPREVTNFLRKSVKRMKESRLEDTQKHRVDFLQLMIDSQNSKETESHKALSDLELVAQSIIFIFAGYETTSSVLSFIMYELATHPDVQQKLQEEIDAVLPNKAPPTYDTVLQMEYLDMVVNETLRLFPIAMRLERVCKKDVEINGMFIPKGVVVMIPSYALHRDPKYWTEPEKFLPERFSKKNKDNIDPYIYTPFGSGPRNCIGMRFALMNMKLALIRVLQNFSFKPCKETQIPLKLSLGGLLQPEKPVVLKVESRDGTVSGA
Chain of CYP2D6 (P10635 whole entry): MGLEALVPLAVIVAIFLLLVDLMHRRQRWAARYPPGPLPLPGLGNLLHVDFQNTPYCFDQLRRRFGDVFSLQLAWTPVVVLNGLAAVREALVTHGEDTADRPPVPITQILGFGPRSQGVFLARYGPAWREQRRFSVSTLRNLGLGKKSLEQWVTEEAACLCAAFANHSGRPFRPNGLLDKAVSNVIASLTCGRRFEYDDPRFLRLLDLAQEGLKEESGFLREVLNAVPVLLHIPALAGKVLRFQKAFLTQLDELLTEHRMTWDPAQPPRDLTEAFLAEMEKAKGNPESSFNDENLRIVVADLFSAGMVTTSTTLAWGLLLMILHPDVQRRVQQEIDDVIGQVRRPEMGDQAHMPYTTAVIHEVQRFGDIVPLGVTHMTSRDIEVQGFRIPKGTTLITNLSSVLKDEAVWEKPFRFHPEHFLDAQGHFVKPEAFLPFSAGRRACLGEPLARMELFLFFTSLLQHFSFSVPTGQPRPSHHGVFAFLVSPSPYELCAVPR
Experimental for (HEPG2): The toxic potential of compounds was investigated in vitro using primary human hepatocytes (HEPG2). The compounds were tested at 30 μM in duplicate with a final DMSO concentration of 1%. After incubation during 24 h at 37° C. the cell viability was determined by the conversion of oxided alarmarBlue (resazurin) to reduced alarmarBlue (resorufin). Chlorpromazine was used as reference compound. Results are expressed as a percent of inhibition of control values.
Experimental for physchem: The measurement of partition coefficient was evaluated based on a miniaturized shake-flask procedure. Buffer (Dulbecco's PBS, pH 7.40) was used as the aqueous phase. The tested compound was dissolved in DMSO, at the concentration of 100 μM. The final DMSO concentration (1%.) during the octanol-buffer partitioning are very low to avoid bias on the partitioning. The amount of compound in the buffer phase was determined by HPLC with photodiode array detection after an equilibration phase of 60 min. The amount of compound in the octanol phase is calculated by subtraction of the amount of compound in buffer from the total amount of compound, which is determined from a calibration sample.
Log D is calculated as the Log10 of the amount of compound in the octanol phase divided by the amount of compound in the buffer phase. The effective range of the log D microassay is approximately −0.5 to +4.5.

As for `COc1c(C)cc2c(c1O)[C@@H]1C3[C@@H]4SC[C@]5(NC(C)Cc6c5[nH]c5ccc(F)cc65)C(=O)COC[C@@H](c5c6c(c(C)c(OC(C)=O)c54)OCO6)N3[C@@H](O)[C@H](C2)N1C` (some centres unmarked) [Compound 41], the “Solubility Dulbecco's PBS pH 7.4” value was <1 est μM. In [1], the Heart came out at 3.49E−08. Moreover, in the data set with H-MEC-1 (setting [7]), the GI50 (commonly the concentration at which growth is held to half of that of the control) amounted to 4.68 nM and the TGI came to 4.08E−08 Molar. The CC50 in the data set on H-MEC-1 (Homo sapiens, HMEC-1, 48 h, read-out: LC50, H-MEC-1, 48 hours exposure, SRB) came to 12700 nM. The “Human Liver S9 Metabolic Stability (% remaining)” value in [2] stood at 7 % remaining. Further, the “Cell Viability (% inhibition)” value in the data set with (HEPG2) turned out to be 16 % inhibition. Moreover, the Kidney in data set [3] is on record as 1.89E−08. Besides, on CYP2D6, the inhibition – broadly, the drop in the measured response relative to a control, in per cent – at 450 min, 10 µM turned out to be 16%. In addition, the Skeletal in data set [4] is recorded as 2.39E−07. The compound also had a concentration for 50% growth inhibition (GI50) in the data set with SK-OV3 (Homo sapiens, SK-OV-3, 48 h, SK-OV3, 48 hours exposure, SRB) of 3.85 nM. In the data set on SK-OV3 (Homo sapiens, SK-OV-3, 48 h, read-out: LC50, SK-OV3, 48 hours exposure, SRB), the CC50 was 12700 nM. Also, in the data set with SK-OV3 (SK-OV3, 48 hours exposure, SRB), the TGI came to 9.82E−09 Molar. The compound also showed a Liver in [5] of 6.30E−08. Moreover, the “CYP3A4 (% inhibition)” value at CYP3A4 is 22 % inhibition. The same compound registered a Myelo in [6] of 1.39E−07. In addition, in the data set on K562, the concentration for 50% growth inhibition (GI50) came to 0.11 nM and the TGI is recorded as 2.19E−09 Molar. The CC50 in the data set with K562 (read-out: LC50) was 5.57 nM. Also, in the data set with IGROV-ET, growth was halved (GI50) at 3.14 nM and the TGI is recorded as 2.00E−08 Molar. Moreover, the CC50 in the data set on IGROV-ET (read-out: LC50) came to 3860 nM. In the data set with MEL-28, this compound came in with a GI50 of 6.72 nM and a TGI of 2.66E−08 Molar. Further, in the data set on MEL-28 (read-out: LC50), the CC50 came out at 102 nM. Besides, in the data set on DU145 (Homo sapiens, DU-145, 48 h), the GI50 came to 3.49 nM and the IC (TGI) was determined as 8.37 nM. For the same compound, the CC50 with DU145 (read-out: LC50) stood at 9900 nM. In the data set with SK-BR3, this compound showed a 50% growth inhibitory concentration (GI50) of 2.33 nM and a TGI of 6.86E−09 Molar. In the data set on SK-BR3 (read-out: LC50), the CC50 turned out to be 36.3 nM. For the same compound, in the data set with A549 (A549, 48 hours exposure, SRB, read-out: GI50), the GI50 came out at 19.8 nM. Moreover, the IC (TGI) in the data set with A549 (A549, 48 hours exposure, SRB, read-out: TGI) came out at 46.8 nM. The CC50 in the data set with A549 (read-out: LC50, A549, 48 hours exposure, SRB) came to 110 nM. Besides, in the data set on IGROV (48 hours exposure, SRB), it took 1.94 nM to inhibit growth by half (GI50) and the IC (TGI) worked out at 4.14 nM. For the same compound, the CC50 with IGROV (read-out: LC50, IGROV, 48 hours exposure, SRB) turned out to be 8.86 nM. In the data set with LOVO (Homo sapiens, LoVo, 48 h), the IC (TGI) was 24.4 nM. Further, halving of growth in the data set on LOVO (LOVO) (GI50) required 4.42 nM. The CC50 with LOVO (read-out: LC50, LOVO) amounted to 410 nM. In addition, in the data set with PANC-1 (Homo sapiens, PANC-1, 48 h), the concentration for 50% growth inhibition (GI50) came to 10.8 nM and the IC (TGI) was found to be 48.9 nM. Besides, the CC50 in the data set with PANC-1 (read-out: LC50) amounted to 506 nM. In the data set with LNCAP (48 hours exposure, SRB), this compound came in with a GI50 of 2.62 nM and an IC (TGI) of 5.17 nM. Besides, in the data set with LNCAP (read-out: LC50, LNCAP, 48 hours exposure, SRB), the CC50 stood at 10.2 nM. For the same compound, in the data set on LOVO-DOX (Homo sapiens, 48 h, LOVO-DOX, 48 hours exposure, SRB), the GI50 was 30.5 nM. Also, the CC50 in the data set on LOVO-DOX (Homo sapiens, 48 h, read-out: LC50, LOVO-DOX, 48 hours exposure, SRB) is 12700 nM. In the data set with LOVO-DOX (LOVO-DOX, 48 hours exposure, SRB), the TGI was determined as 9.99E−08 Molar. In the data set on HT29 (HT29, 48 hours exposure, SRB), this compound returned a GI50 of 5.66 nM and a TGI of 6.07E−08 Molar. Besides, the CC50 in the data set on HT29 (Homo sapiens, HT-29, 48 h, read-out: LC50, HT29, 48 hours exposure, SRB) was found to be 12700 nM. Besides, the logD (as a rule, lipophilicity at a set pH, counting ionised and neutral species) at 60 min in the data set “physchem” was > 4.5.

For `COc1c(C)cc2c(c1O)[C@H]1N[C@@H](C2)[C@H](O)N2[C@H]1[C@@H]1SC[C@]3(NCCc4c3[nH]c3ccccc43)C(=O)OC[C@H]2c2c3c(c(C)c(OC(C)=O)c21)OCO3` [Ecteinascidin 722, ecteinascidin 722], in the data set with P388 lymphoma, the “in vivo protection against P388 lymphoma” value is “protect mice in vivo at very low concentrations”. For the same compound, the “in vivo protection against B16 melanoma” value in the data set with B16 melanoma is given as “protect mice in vivo at very low concentrations”. For the same compound, the “in vivo protection against Lewis lung carcinoma” value in the data set with Lewis lung carcinoma is “protect mice in vivo at very low concentrations”.

With `COc1c(C)cc2c(c1O)[C@@H]1C3[C@@H]4SC[C@]5(NCCc6c5[nH]c5ccccc65)C(=O)OC[C@@H](c5c6c(c(C)c(OC(C)=O)c54)OCO6)N3[C@@H](O)[C@H](C2)N1C` (some centres unmarked) [Ecteinascidin 736, ecteinascidin 736], the “in vivo protection against P388 lymphoma” value in the data set with P388 lymphoma is reported as “protect mice in vivo at very low concentrations”. The “in vivo protection against B16 melanoma” value in the data set with B16 melanoma was “protect mice in vivo at very low concentrations”. The “in vivo protection against Lewis lung carcinoma” value in the data set with Lewis lung carcinoma is listed as “protect mice in vivo at very low concentrations”.
